Measured values taken from ChEMBL document CHEMBL1201862, “PubChem BioAssay data set” (2004).
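Values below derive from 48-hour exposures of cells grown in 96-well plates, with endpoints linearly interpolated between the two concentrations bracketing the appropriate inhibition level. At the GI50, growth is halved.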 The source made the active and inactive calls. No stated cut-off is given here; in the data, active = GI50 up to about 1.1 µM and inactive = higher.

Legend:
Assay in all cases: NCI tumour cell line growth inhibition, 48 h
786-0 = test system: 786-0
A498 = test system: A498
A549 = test system: A549
ACHN = test system: ACHN
BT-549 = test system: BT-549
CCRF-CEM = test system: CCRF-CEM
COLO 205 = test system: COLO 205
DU-145 = test system: DU-145
EKVX = test system: EKVX
HCC 2998 = test system: HCC 2998
HCT-116 = test system: HCT-116
HCT-15 = test system: HCT-15
HL-60 = test system: HL-60
HOP-62 = test system: HOP-62
HT-29 = test system: HT-29
Hs-578T = test system: Hs-578T
IGROV-1 = test system: IGROV-1
K562 = test system: K562
KM12 = test system: KM12
LOX IMVI = test system: LOX IMVI
M14 = test system: M14
MCF7 = test system: MCF7
MDA-MB-231 = test system: MDA-MB-231
MDA-MB-435 = test system: MDA-MB-435
MDA-N = test system: MDA-N
MOLT-4 = test system: MOLT-4
Malme-3M = test system: Malme-3M
NCI-H226 = test system: NCI-H226
NCI-H23 = test system: NCI-H23
NCI-H460 = test system: NCI-H460
NCI-H522 = test system: NCI-H522
NCI/ADR-RES = test system: NCI/ADR-RES
OVCAR-3 = test system: OVCAR-3
OVCAR-4 = test system: OVCAR-4
OVCAR-5 = test system: OVCAR-5
OVCAR-8 = test system: OVCAR-8
PC-3 = test system: PC-3
RPMI-8226 = test system: RPMI-8226
RXF 393 = test system: RXF 393
SF-268 = test system: SF-268
SF-295 = test system: SF-295
SF-539 = test system: SF-539
SK-MEL-28 = test system: SK-MEL-28
SK-MEL-2 = test system: SK-MEL-2
SK-MEL-5 = test system: SK-MEL-5
SK-OV-3 = test system: SK-OV-3
SN12C = test system: SN12C
SNB-19 = test system: SNB-19
SNB-75 = test system: SNB-75
SR = test system: SR
SW-620 = test system: SW-620
T47D = test system: T47D
TK-10 = test system: TK-10
U-251 = test system: U-251
UACC-62 = test system: UACC-62
UO-31 = test system: UO-31
CAKI-1 = test system: CAKI-1
HOP-92 = test system: HOP-92
UACC-257 = test system: UACC-257

CNc1ccc(C)cc1S(=O)(=O)c1ccccc1[N+](=O)[O-]
GI50 (786-0): 64.6 µM (inactive)
GI50 (A498): 62.5 µM (inactive)
GI50 (A549): 41.3 µM (inactive)
GI50 (ACHN): 30.8 µM (inactive)
GI50 (BT-549): 46.6 µM (inactive)
GI50 (CCRF-CEM): 21.4 µM (inactive)
GI50 (COLO 205): 65.6 µM (inactive)
GI50 (DU-145): > 100 µM (inactive)
GI50 (EKVX): 51.8 µM (inactive)
GI50 (HCC 2998): 92.5 µM (inactive)
GI50 (HCT-116): 48.4 µM (inactive)
GI50 (HCT-15): 41.3 µM
GI50 (HL-60): > 10 µM (inactive)
GI50 (HOP-62): 58.9 µM (inactive)
GI50 (HT-29): 48.1 µM (inactive)
GI50 (Hs-578T): 55.7 µM (inactive)
GI50 (IGROV-1): 58.5 µM (inactive)
GI50 (K562): 26.7 µM (inactive)
GI50 (KM12): 59.4 µM (inactive)
GI50 (LOX IMVI): 30.9 µM (inactive)
GI50 (M14): 40.6 µM (inactive)
GI50 (MCF7): 30 µM (inactive)
GI50 (MDA-MB-231): > 100 µM (inactive)
GI50 (MDA-MB-435): 25.5 µM (inactive)
GI50 (MDA-N): 26.2 µM (inactive)
GI50 (MOLT-4): 18.4 µM (inactive)
GI50 (Malme-3M): 60.3 µM (inactive)
GI50 (NCI-H226): 75.5 µM (inactive)
GI50 (NCI-H23): 63 µM (inactive)
GI50 (NCI-H460): 51.1 µM (inactive)
GI50 (NCI-H522): 31.8 µM (inactive)
GI50 (NCI/ADR-RES): 42.3 µM (inactive)
GI50 (OVCAR-3): 43.2 µM (inactive)
GI50 (OVCAR-4): 25.2 µM (inactive)
GI50 (OVCAR-5): > 100 µM (inactive)
GI50 (OVCAR-8): 78 µM (inactive)
GI50 (PC-3): 28.1 µM (inactive)
GI50 (RPMI-8226): 49.4 µM (inactive)
GI50 (RXF 393): > 100 µM (inactive)
GI50 (SF-268): 53 µM (inactive)
GI50 (SF-295): 42.1 µM (inactive)
GI50 (SF-539): > 100 µM (inactive)
GI50 (SK-MEL-28): 38.8 µM (inactive)
GI50 (SK-MEL-2): 62.4 µM (inactive)
GI50 (SK-MEL-5): 18.2 µM (inactive)
GI50 (SK-OV-3): 91 µM (inactive)
GI50 (SN12C): 86.7 µM (inactive)
GI50 (SNB-19): 78 µM (inactive)
GI50 (SNB-75): 43.3 µM (inactive)
GI50 (SR): 51.3 µM (inactive)
GI50 (SW-620): 69.8 µM (inactive)
GI50 (T47D): 29 µM (inactive)
GI50 (TK-10): 99.3 µM (inactive)
GI50 (U-251): 57.7 µM (inactive)
GI50 (UACC-62): 22.1 µM (inactive)
GI50 (UO-31): 52.5 µM (inactive)

CCOC(=O)COc1ccc(/C=C/C(=O)c2ccc(OC)cc2)cc1
GI50 (786-0): 20.8 µM (inactive)
GI50 (A498): 29.6 µM (inactive)
GI50 (A549): 58.1 µM (inactive)
GI50 (ACHN): 33 µM (inactive)
GI50 (BT-549): 28.5 µM (inactive)
GI50 (CAKI-1): > 10 µM (inactive)
GI50 (CCRF-CEM): 20.9 µM (inactive)
GI50 (COLO 205): 35.4 µM (inactive)
GI50 (DU-145): 29.9 µM (inactive)
GI50 (EKVX): 27.8 µM (inactive)
GI50 (HCC 2998): 23.7 µM (inactive)
GI50 (HCT-116): 21.3 µM (inactive)
GI50 (HCT-15): 24.4 µM
GI50 (HL-60): 27 µM (inactive)
GI50 (HOP-62): 20.8 µM (inactive)
GI50 (HOP-92): 16.6 µM (inactive)
GI50 (HT-29): 21.5 µM (inactive)
GI50 (Hs-578T): 25.9 µM (inactive)
GI50 (IGROV-1): 45.2 µM (inactive)
GI50 (K562): 40.6 µM (inactive)
GI50 (KM12): 28.4 µM (inactive)
GI50 (LOX IMVI): 16.3 µM (inactive)
GI50 (M14): 34.6 µM (inactive)
GI50 (MCF7): 30.7 µM (inactive)
GI50 (MDA-MB-231): 37.6 µM (inactive)
GI50 (MDA-MB-435): 16.8 µM (inactive)
GI50 (MDA-N): 26.7 µM (inactive)
GI50 (MOLT-4): 42.9 µM (inactive)
GI50 (Malme-3M): 28.2 µM (inactive)
GI50 (NCI-H23): 25.8 µM (inactive)
GI50 (NCI-H522): 22.3 µM (inactive)
GI50 (NCI/ADR-RES): 44.7 µM (inactive)
GI50 (OVCAR-3): 30 µM (inactive)
GI50 (OVCAR-5): 37.4 µM (inactive)
GI50 (OVCAR-8): 24.5 µM (inactive)
GI50 (PC-3): 22.9 µM (inactive)
GI50 (RPMI-8226): 39.3 µM (inactive)
GI50 (RXF 393): 18.1 µM (inactive)
GI50 (SF-268): 22.3 µM (inactive)
GI50 (SF-295): 29 µM (inactive)
GI50 (SF-539): 19.6 µM (inactive)
GI50 (SK-MEL-28): 19.3 µM (inactive)
GI50 (SK-MEL-2): 27.7 µM (inactive)
GI50 (SK-MEL-5): > 10 µM (inactive)
GI50 (SN12C): 19 µM (inactive)
GI50 (SNB-19): 41.8 µM (inactive)
GI50 (SNB-75): 65.3 µM (inactive)
GI50 (SR): 23.2 µM (inactive)
GI50 (SW-620): 20.7 µM (inactive)
GI50 (T47D): 39.7 µM (inactive)
GI50 (TK-10): 42 µM (inactive)
GI50 (U-251): 14.3 µM (inactive)
GI50 (UACC-257): 23.1 µM (inactive)
GI50 (UACC-62): 22.5 µM (inactive)
GI50 (UO-31): 19.3 µM (inactive)

c1ccc2c(c1)cc1ccc3cccc4ccc2c1c34
GI50 (786-0): > 100 µM (inactive)
GI50 (A549): > 100 µM (inactive)
GI50 (ACHN): > 100 µM (inactive)
GI50 (BT-549): > 100 µM (inactive)
GI50 (CAKI-1): > 100 µM (inactive)
GI50 (CCRF-CEM): > 100 µM (inactive)
GI50 (COLO 205): > 100 µM (inactive)
GI50 (DU-145): > 100 µM (inactive)
GI50 (EKVX): 9.04 µM (inactive)
GI50 (HCC 2998): > 100 µM (inactive)
GI50 (HCT-116): > 100 µM (inactive)
GI50 (HCT-15): 6.05 µM
GI50 (HL-60): > 100 µM (inactive)
GI50 (HOP-62): > 100 µM (inactive)
GI50 (HOP-92): > 100 µM (inactive)
GI50 (HT-29): > 100 µM (inactive)
GI50 (Hs-578T): > 100 µM (inactive)
GI50 (IGROV-1): > 100 µM (inactive)
GI50 (K562): > 100 µM (inactive)
GI50 (KM12): 26.2 µM (inactive)
GI50 (LOX IMVI): > 100 µM (inactive)
GI50 (M14): > 100 µM (inactive)
GI50 (MCF7): 0.134 µM (active)
GI50 (MDA-MB-231): > 100 µM (inactive)
GI50 (MDA-MB-435): > 100 µM (inactive)
GI50 (MDA-N): > 100 µM (inactive)
GI50 (MOLT-4): > 100 µM (inactive)
GI50 (NCI-H226): > 100 µM (inactive)
GI50 (NCI-H23): > 100 µM (inactive)
GI50 (NCI-H460): > 100 µM (inactive)
GI50 (NCI-H522): > 100 µM (inactive)
GI50 (NCI/ADR-RES): > 100 µM (inactive)
GI50 (OVCAR-3): > 100 µM (inactive)
GI50 (OVCAR-8): > 100 µM (inactive)
GI50 (PC-3): > 100 µM (inactive)
GI50 (RPMI-8226): > 100 µM (inactive)
GI50 (RXF 393): > 100 µM (inactive)
GI50 (SF-268): > 100 µM (inactive)
GI50 (SF-295): > 100 µM (inactive)
GI50 (SF-539): > 100 µM (inactive)
GI50 (SK-MEL-28): > 100 µM (inactive)
GI50 (SK-MEL-2): > 100 µM (inactive)
GI50 (SK-MEL-5): > 100 µM (inactive)
GI50 (SK-OV-3): > 100 µM (inactive)
GI50 (SN12C): > 100 µM (inactive)
GI50 (SNB-19): 81.1 µM (inactive)
GI50 (SNB-75): > 100 µM (inactive)
GI50 (SR): > 100 µM (inactive)
GI50 (SW-620): > 100 µM (inactive)
GI50 (T47D): > 100 µM (inactive)
GI50 (TK-10): > 100 µM (inactive)
GI50 (U-251): > 100 µM (inactive)
GI50 (UACC-257): > 100 µM (inactive)
GI50 (UACC-62): 67.9 µM (inactive)
GI50 (UO-31): > 100 µM (inactive)
